Tested on: 361931-004-R-J1-PDC multicell spheroid viability
Test: Anticancer human tumor 361931-004-R-J1-PDC patient-derived colon adenocarcinoma cell line growth inhibition [PI3K]
Conditions: for IC50: curve of first compound; for viability, T/C: stronger effect = lower value; active = viability on the fitted dose curve at most 10% of control; inactive = the rest
Method in brief: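 Stroma-containing spheroids: tumor line, pooled-donor HUVEC, hMSC. Treatments: targeted agents with PI3K inhibitors. Dosing: clinically relevant, half-log spacing, 10 microM ceiling without known Cmax. Read-out: cell viability.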

[1] = second compound 0.00316 µM, first compound 0.0316 µM
[2] = second compound 0.00316 µM, first compound 0.1 µM
[3] = second compound 0.00316 µM, first compound 0.316 µM
[4] = second compound 0.00316 µM, first compound 1 µM
[5] = second compound 0.00316 µM, first compound 3.16 µM
[6] = second compound 0.00316 µM, first compound 10 µM
[7] = second compound 0.01 µM, first compound 0.0316 µM
[8] = second compound 0.01 µM, first compound 0.1 µM
[9] = second compound 0.01 µM, first compound 0.316 µM
[10] = second compound 0.01 µM, first compound 1 µM
[11] = second compound 0.01 µM, first compound 3.16 µM
[12] = second compound 0.01 µM, first compound 10 µM
[13] = second compound 0.0316 µM, first compound 0.0316 µM
[14] = second compound 0.0316 µM, first compound 0.1 µM
[15] = second compound 0.0316 µM, first compound 0.316 µM
[16] = second compound 0.0316 µM, first compound 1 µM
[17] = second compound 0.0316 µM, first compound 3.16 µM
[18] = second compound 0.0316 µM, first compound 10 µM
[19] = second compound 0.1 µM, first compound 0.0316 µM
[20] = second compound 0.1 µM, first compound 0.1 µM
[21] = second compound 0.1 µM, first compound 0.316 µM
[22] = second compound 0.1 µM, first compound 1 µM
[23] = second compound 0.1 µM, first compound 3.16 µM
[24] = second compound 0.1 µM, first compound 10 µM
[25] = second compound 0.316 µM, first compound 0.0316 µM
[26] = second compound 0.316 µM, first compound 0.1 µM
[27] = second compound 0.316 µM, first compound 0.316 µM
[28] = second compound 0.316 µM, first compound 1 µM
[29] = second compound 0.316 µM, first compound 3.16 µM
[30] = second compound 0.316 µM, first compound 10 µM
[31] = second compound 1 µM, first compound 0.0316 µM
[32] = second compound 1 µM, first compound 0.1 µM
[33] = second compound 1 µM, first compound 0.316 µM
[34] = second compound 1 µM, first compound 1 µM
[35] = second compound 1 µM, first compound 3.16 µM
[36] = second compound 1 µM, first compound 10 µM
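Note: spheroids exposed to agents for seven days before readout.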

Cn1ncc(Cl)c1-c1cc(C(=O)NC(CN)Cc2cccc(F)c2)sc1Cl (stereo unspecified) + COc1c(OCCCN2CCOCC2)ccc2c3n(c(=NC(=O)c4cnc(N)nc4)nc12)CCN3
49.1 nM: IC50 (second compound 0.316 µM)
2520 nM: IC50 (second compound 0.00316 µM)
inactive: viability, T/C [1] 104% | viability, T/C [2] 111% | viability, T/C [3] 100% | viability, T/C [4] 80.6% | viability, T/C [5] 42.5% | viability, T/C [6] 27.4% | viability, T/C [7] 104% | viability, T/C [8] 102% | viability, T/C [9] 94.8% | viability, T/C [10] 66.7% | viability, T/C [11] 37.2% | viability, T/C [12] 26.7% | viability, T/C [13] 94.9% | viability, T/C [14] 101% | viability, T/C [15] 90.6% | viability, T/C [16] 61.6% | viability, T/C [17] 40.1% | viability, T/C [18] 25.6% | viability, T/C [19] 83.4% | viability, T/C [20] 83.9% | viability, T/C [21] 74.2% | viability, T/C [22] 63% | viability, T/C [23] 31.6% | viability, T/C [24] 19% | viability, T/C [25] 54.2% | viability, T/C [26] 43.5% | viability, T/C [27] 40.5% | viability, T/C [28] 35.8% | viability, T/C [29] 30.9% | viability, T/C [30] 15.8% | viability, T/C [31] 19.7% | viability, T/C [32] 19.4% | viability, T/C [33] 18.7% | viability, T/C [34] 20.3% | viability, T/C [35] 19.7% | viability, T/C [36] 10.3%
< 31.6 nM: IC50 (second compound 1 µM)
1910 nM: IC50 (second compound 0.01 µM)
1820 nM: IC50 (second compound 0.0316 µM)
1570 nM: IC50 (second compound 0.1 µM)

Cn1nccc1Nc1nccc(-c2ccn(C(CO)c3ccc(Cl)c(F)c3)c(=O)c2)n1 (stereo unspecified) + COc1c(OCCCN2CCOCC2)ccc2c3n(c(=NC(=O)c4cnc(N)nc4)nc12)CCN3
450 nM: IC50 (second compound 0.1 µM)
4530 nM: IC50 (second compound 0.01 µM)
< 31.6 nM: IC50 (second compound 1 µM)
32.5 nM: IC50 (second compound 0.316 µM)
active: viability, T/C [24] 3.74% | viability, T/C [28] 8.67% | viability, T/C [29] 2.32% | viability, T/C [30] 2.04% | viability, T/C [33] 8.6% | viability, T/C [34] 2.23% | viability, T/C [35] 1.89% | viability, T/C [36] 1.61%
9030 nM: IC50 (second compound 0.00316 µM)
inactive: viability, T/C [1] 92.5% | viability, T/C [2] 98.3% | viability, T/C [3] 90.9% | viability, T/C [4] 86.3% | viability, T/C [5] 77% | viability, T/C [6] 47.2% | viability, T/C [7] 87.9% | viability, T/C [8] 94.4% | viability, T/C [9] 88.7% | viability, T/C [10] 80.8% | viability, T/C [11] 59.9% | viability, T/C [12] 28.6% | viability, T/C [13] 92% | viability, T/C [14] 87.7% | viability, T/C [15] 77.4% | viability, T/C [16] 64% | viability, T/C [17] 27.9% | viability, T/C [18] 12.6% | viability, T/C [19] 80.8% | viability, T/C [20] 72.3% | viability, T/C [21] 58.3% | viability, T/C [22] 32.8% | viability, T/C [23] 8.5% | viability, T/C [25] 50.8% | viability, T/C [26] 40.2% | viability, T/C [27] 26.1% | viability, T/C [31] 18.4% | viability, T/C [32] 13.3%
1490 nM: IC50 (second compound 0.0316 µM)

Cn1ncnc1[C@H]1c2n[nH]c(=O)c3cc(F)cc(c23)N[C@@H]1c1ccc(F)cc1 + COc1c(OCCCN2CCOCC2)ccc2c3n(c(=NC(=O)c4cnc(N)nc4)nc12)CCN3
1.1 nM: IC50 (second compound 0.316 µM)
< 0.316 nM: IC50 (second compound 1 µM)
> 100 nM: IC50 (second compound 0.00316 µM) | IC50 (second compound 0.01 µM) | IC50 (second compound 0.0316 µM) | IC50 (second compound 0.1 µM)
inactive: viability, T/C (second compound 0.00316 µM, first compound 0.000316 µM) 105% | viability, T/C (second compound 0.00316 µM, first compound 0.001 µM) 106% | viability, T/C (second compound 0.00316 µM, first compound 0.00316 µM) 97.9% | viability, T/C (second compound 0.00316 µM, first compound 0.01 µM) 98.2% | viability, T/C [1] 101% | viability, T/C [2] 87.8% | viability, T/C (second compound 0.01 µM, first compound 0.000316 µM) 91.1% | viability, T/C (second compound 0.01 µM, first compound 0.001 µM) 97.1% | viability, T/C (second compound 0.01 µM, first compound 0.00316 µM) 102% | viability, T/C (second compound 0.01 µM, first compound 0.01 µM) 93% | viability, T/C [7] 91.5% | viability, T/C [8] 84.9% | viability, T/C (second compound 0.0316 µM, first compound 0.000316 µM) 97% | viability, T/C (second compound 0.0316 µM, first compound 0.001 µM) 87% | viability, T/C (second compound 0.0316 µM, first compound 0.00316 µM) 90% | viability, T/C (second compound 0.0316 µM, first compound 0.01 µM) 82.7% | viability, T/C [13] 87.3% | viability, T/C [14] 77.9% | viability, T/C (second compound 0.1 µM, first compound 0.000316 µM) 81.7% | viability, T/C (second compound 0.1 µM, first compound 0.001 µM) 73.5% | viability, T/C (second compound 0.1 µM, first compound 0.00316 µM) 78.6% | viability, T/C (second compound 0.1 µM, first compound 0.01 µM) 72.4% | viability, T/C [19] 80.3% | viability, T/C [20] 64.7% | viability, T/C (second compound 0.316 µM, first compound 0.000316 µM) 50.5% | viability, T/C (second compound 0.316 µM, first compound 0.001 µM) 53.9% | viability, T/C (second compound 0.316 µM, first compound 0.00316 µM) 48.3% | viability, T/C (second compound 0.316 µM, first compound 0.01 µM) 41.5% | viability, T/C [25] 41% | viability, T/C [26] 39.2% | viability, T/C (second compound 1 µM, first compound 0.000316 µM) 15.9% | viability, T/C (second compound 1 µM, first compound 0.001 µM) 19.1% | viability, T/C (second compound 1 µM, first compound 0.00316 µM) 20.5% | viability, T/C (second compound 1 µM, first compound 0.01 µM) 19.7% | viability, T/C [31] 16.3% | viability, T/C [32] 17.6%

Source: PubChem BioAssay AID1963979 (Molecular Pharmacology Branch, DTP, NCI, 2024)
